Results taken from patent US8530493B2, “Indolopyridines as Eg5 kinesin modulators” (4SC AG, priority 2006, dated 2013).

Tests used:
[1] = system: RKO p27 or p21 uninduced (proliferating) colon adenocarcinoma cells; experiment: Alamar Blue cell viability assay, RKO p27 or p21 uninduced (proliferating); assay type: cell-based; details: Homo sapiens, RKOp27, 72 h, Table B2, anti-proliferative/cytotoxic activity, read-out: −log EC50 RKO p27 or p21 uninduced (proliferating) (converted)
Procedure: The anti-proliferative/cytotoxic activity of the compounds described herein can be tested on subclones of RKO human colon adenocarcinoma cells (Schmidt et al., Oncogene 19, 2423-2429; 2000) using the Alamar Blue cell viability assay (described in O'Brien et al. Eur J Biochem 267, 5421-5426, 2000). The compounds are dissolved as 10 mM solutions in DMSO and subsequently diluted in semi-logarithmic steps. DMSO dilutions are further diluted 1:100 into Dulbecco's modified Eagle's medium (DMEM) containing 10% fetal calf serum to a final concentration twice as much as the final concentration in the test. RKO subclones are seeded into 96 well flat bottom plates at a density of 4000 cells per well in a volume of 50 μl per well. 24 hours after seeding the 50 μl each of the compound dilutions in DMEM medium are added into each well of the 96 well plate. Each compound dilution is tested as triplicates. Wells containing untreated control cells are filled with 50 μl DMEM medium containing 1% DMSO. The cells are then incubated with the substances for 72 hours at 37° C. in a humidified atmosphere containing 5% carbon dioxide. To determine the viability of the cells, 10 μl of an Alamar Blue solution (Biosource) are added and the fluorescence is measured at an extinction of 544 nm and an emission of 590 nm. For the calculation of the cell viability the emission value from untreated cells is set as 100% viability and the emission rates of treated cells are set in relation to the values of untreated cells. Viabilities are expressed as % values. The Graphpad Prism program is used for the calculation of EC50 values for anti-proliferative/cytotoxic activity out of the obtained dose-response curves.
(§1) To determine the cell cycle specific mode of action, subclones of RKO colon adenocarcinoma cells (RKOp21 or RKOp27 as described by Schmidt et al. in Oncogene 19, 2423-2429; 2000) are seeded into 96 well flat bottom plates at a density of 16000 cells per well in a volume of 50 μl per well in DMEM growth medium with 10% FCS containing 10 μM Ponasterone A. 24 hours after seeding the 50 μl each of the compound dilutions in DMEM medium are added into each well of the 96-well plate. Each compound dilution is tested as triplicates. Wells containing untreated control cells are filled with 50 μl DMEM medium containing 1% DMSO. The cells are then incubated with the substances for 72 hours at 37° C. in a humidified atmosphere containing 5% carbon dioxide. To determine the viability of the cells, 10 μl of an Alamar Blue solution (Biosource) are added and the fluorescence is measured at an extinction of 544 nm and an emission of 590 nm. For the calculation of the cell viability the emission value from untreated cells is set as 100% viability and the emission rates of treated cells are set in relation to the values of untreated cells. Viabilities are expressed as % values. The Graphpad Prism program (GraphPad Software, Inc) is used for the calculation of EC50 values out of the obtained dose-response curves. Viability is compared of proliferating cells grown in the absence of the inducer Ponasterone A, versus viability of cells arrested by the expression of ectopic p27Kip1 induced by Ponasterone A.
(§2) Representative values for anti-proliferation/cytotoxicity [measured as −log EC50 (mol/l)] determined in the aforementioned assays follow from the following tables B1, B2 and B3, in which the numbers of the compounds correspond to the numbers of the examples.

[2] = system: RKO p27 or p21 induced (arrested) colon adenocarcinoma cells; experiment: Alamar Blue cell viability assay, RKO p27 or p21 induced (arrested); assay type: cell-based; details: Homo sapiens, RKOp27, Table B2, cells arrested by Ponasterone A, 72 hours, read-out: −log EC50 RKO p27 or p21 induced (arrested) (converted)
Procedure: as §1, §2

Structure (SMILES)	EC50 [1] [nM]	EC50 [2] [nM]
C#CCNCCCN1C(=O)N2[C@H](c3cccc(O)c3)c3[nH]c4ccc(OC)cc4c3C[C@@]2(C)C1=O (racemic) [Example 147, (3aSR,10RS)-10-(3-Hydroxy-phenyl)-6-methoxy-3a-methyl-2-(3-prop-2-ynylamino-propyl)-3a,4,9,10-tetrahydro-2,9,10a-triaza-cyclopenta[b]fluorene-1,3-dione]	≤ 39.8	≥ 316
CCN(CCOC)CCN1C(=O)N2[C@H](c3cccc(O)c3)c3[nH]c4ccc(OC)cc4c3C[C@@]2(C)C1=O (racemic) [Example 79, (3aSR,10RS)-2-[2-[Ethyl-(2-methoxy-ethyl)-amino]-ethyl}-10-(3-hydroxy-phenyl)-6-methoxy-3a-methyl-3a,4,9,10-tetrahydro-2,9,10a-triaza-cyclopenta[b]fluorene-1,3-dione]	≤ 39.8	≥ 3160
C[C@@]12Cc3c([nH]c4ccc(Cl)cc34)[C@@H](c3cccc(O)c3)N1C(=O)N(CCNCC1CC1)C2=O (racemic) [Example 108, (3aSR,10RS)-6-Chloro-2-[2-(cyclopropylmethyl-amino)-ethyl]-10-(3-hydroxy-phenyl)-3a-methyl-3a,4,9,10-tetrahydro-2,9,10a-triaza-cyclopenta[b]fluorene-1,3-dione]	≤ 39.8	≥ 316
COc1ccc2[nH]c3c(c2c1)C[C@@]1(C)C(=O)N(CCN2CCC(C)CC2)C(=O)N1[C@@H]3c1cccc(O)c1 (racemic) [Example 75, (3aSR,10RS)-10-(3-Hydroxy-phenyl)-6-methoxy-3a-methyl-2-[2-(4-methyl-piperidin-1-yl)-ethyl]-3a,4,9,10-tetrahydro-2,9,10a-triaza-cyclopenta[b]fluorene-1,3-dione]	39.8 to 251	≥ 3160
COc1ccc2[nH]c3c(c2c1)C[C@@]1(C)C(=O)N(CCN2CCCCC2)C(=O)N1[C@@H]3c1cccc(O)c1 (racemic) [Example 71, (3aSR,10RS)-10-(3-Hydroxy-phenyl)-6-methoxy-3a-methyl-2-(2-piperidin-1-yl-ethyl)-3a,4,9,10-tetrahydro-2,9,10a-triaza-cyclopenta[b]fluorene-1,3-dione]	≤ 39.8	≥ 3160
CCN(CCCN1C(=O)N2[C@H](c3cccc(O)c3)c3[nH]c4ccc(OC)cc4c3C[C@@]2(C)C1=O)CCOC (racemic) [Example 90, (3aSR,10RS)-2-{3-[Ethyl-(2-methoxy-ethyl)-amino]-propyl}-10-(3-hydroxy-phenyl)-6-methoxy-3a-methyl-3a,4,9,10-tetrahydro-2,9,10a-triaza-cyclopenta[b]fluorene-1,3-dione]	≤ 39.8	≥ 3160
C#CCNCCN1C(=O)N2[C@H](c3cccc(O)c3)c3[nH]c4ccc(OC)cc4c3C[C@@]2(C)C1=O (racemic) [Example 85, (3aSR,10RS)-10-(3-Hydroxy-phenyl)-6-methoxy-3a-methyl-2-(2-prop-2-ynylamino-ethyl)-3a,4,9,10-tetrahydro-2,9,10a-triaza-cyclopenta[b]fluorene-1,3-dione]	39.8 to 251	≥ 3160
C#CCNCCN1C(=O)N2[C@H](c3cccc(O)c3)c3[nH]c4ccc(Cl)cc4c3C[C@@]2(C)C1=O (racemic) [Example 127, (3aSR,10RS)-6-Chloro-10-(3-hydroxy-phenyl)-3a-methyl-2-(2-prop-2-ynylamino-ethyl)-3a,4,9,10-tetrahydro-2,9,10a-triaza-cyclopenta[b]fluorene-1,3-dione]	≤ 39.8	≥ 316
COc1ccc2[nH]c3c(c2c1)C[C@@]1(C)C(=O)N(CCCN(C)CCO)C(=O)N1[C@@H]3c1cccc(O)c1 (racemic) [Example 143, (3aSR,10RS)-2-{3[(2-Hydroxy-ethyl)-methyl-amino]-propyl}-10-(3-hydroxy-phenyl)-6-methoxy-3a-methyl-3a,4,9,10-tetrahydro-2,9,10a-triaza-cyclopenta[b]fluorene-1,3-dione]	≤ 39.8	≥ 316
CCN(CCO)CCN1C(=O)N2[C@H](c3cccc(O)c3)c3[nH]c4ccc(Cl)cc4c3C[C@@]2(C)C1=O (racemic) [Example 124, (3aSR,10RS)-6-Chloro-2-{2-[ethyl-(2-hydroxy-ethyl)-amino]-ethyl}-10-(3-hydroxy-phenyl)-3a-methyl-3a,4,9,10-tetrahydro-2,9,10a-triaza-cyclopenta[b]fluorene-1,3-dione]	≤ 39.8	≥ 316
CCN(CCOC)CCN1C(=O)N2[C@H](c3cccc(O)c3)c3[nH]c4ccc(Cl)cc4c3C[C@@]2(C)C1=O (racemic) [Example 121, (3aSR,10RS)-6-Chloro-2-{2-[ethyl-(2-methoxy-ethyl)-amino]-ethyl}-10-(3-hydroxy-phenyl)-3a-methyl-3a,4,9,10-tetrahydro-2,9,10a-triaza-cyclopenta[b]fluorene-1,3-dione]	39.8 to 251	≥ 316
C[C@@]12Cc3c([nH]c4ccc(Cl)cc34)[C@@H](c3cccc(O)c3)N1C(=O)N(CCN1CCCCC1)C2=O (racemic) [Example 101, (3aSR,10RS)-6-Chloro-10-(3-hydroxy-phenyl)-3a-methyl-2-(2-piperidin-1-yl-ethyl)-3a,4,9,10-tetrahydro-2,9,10a-triaza-cyclopenta[b]fluorene-1,3-dione]	≤ 39.8	≥ 3160
CC(C)N(C)CCCN1C(=O)N2[C@H](c3cccc(O)c3)c3[nH]c4ccc(Cl)cc4c3C[C@@]2(C)C1=O (racemic) [Example 133, (3aSR,10RS)-6-Chloro-10-(3-hydroxy-phenyl)-2-[3-(isopropyl-methyl-amino)-propyl]-3a-methyl-3a,4,9,10-tetrahydro-2,9,10a-triaza-cyclopenta[b]fluorene-1,3-dione]	≤ 39.8	≥ 316
COc1ccc2[nH]c3c(c2c1)C[C@@]1(C)C(=O)N(CCCNC(C)C)C(=O)N1[C@@H]3c1cccc(O)c1 (racemic) [Example 67, (3aSR,10RS)-10-(3-Hydroxy-phenyl)-2-(3-isopropylamino-propyl)-6-methoxy-3a-methyl-3a,4,9,10-tetrahydro-2,9,10a-triaza-cyclopenta[b]fluorene-1,3-dione]	≤ 39.8	≥ 3160
CN1CCN(CCN2C(=O)N3[C@H](c4cccc(O)c4)c4[nH]c5ccc(Cl)cc5c4C[C@@]3(C)C2=O)CC1 (racemic) [Example 111, (3aSR,10RS)-6-Chloro-10-(3-hydroxy-phenyl)-3a-methyl-2-[2-(4-methyl-piperazin-1-yl)-ethyl]-3a,4,9,10-tetrahydro-2,9,10a-triaza-cyclopenta[b]fluorene-1,3-dione]	≤ 39.8	≥ 316
CCN(CC)CCN1C(=O)N2[C@H](c3cccc(O)c3)c3[nH]c4ccc(OC)cc4c3C[C@@]2(C)C1=O (racemic) [Example 69, (3aSR,10RS)-2-(2-Diethylamino-ethyl)-10-(3-hydroxy-phenyl)-6-methoxy-3a-methyl-3a,4,9,10-tetrahydro-2,9,10a-triaza-cyclopenta[b]fluorene-1,3-dione]	≤ 39.8	≥ 3160
Cn1ccc(NCCN2C(=O)N3[C@H](c4cccc(O)c4)c4[nH]c5ccc(Cl)cc5c4C[C@@]3(C)C2=O)n1 (racemic) [Example 125, (3aSR,10RS)-6-Chloro-10-(3-hydroyx-phenyl)-3a-methyl-2-[2-(1-methyl-1H-pyrazol-3-ylamino)-ethyl]-3a,4,9,10-tetrahydro-2,9,10a-triaza-cyclopenta[b]fluorene-1,3-dione]	39.8 to 251	≥ 316
C=CCNCCCN1C(=O)N2[C@H](c3cccc(O)c3)c3[nH]c4ccc(Cl)cc4c3C[C@@]2(C)C1=O (racemic) [Example 139, (3aSR,10RS)-2-(3-Allylamino-propyl)-6-chloro-10-(3-hydroxy-phenyl)-3a-methyl-3a,4,9,10-tetrahydro-2,9,10a-triaza-cyclopenta[b]fluorene-1,3-dione]	≤ 39.8	≥ 3160
